Each structure is given as a SMILES string.

For the assay, the system named is P. falciparum 3D7 growth, pLDH absorbance. Briefly: blood-stage malaria parasite growth potency – strain 3D7, dose response (AID 2305).
One may read the IC50 as the concentration that inhibits the measured activity by half. The low end stands for greater potency, the high end for weaker potency. In turn, `O=C(NCc1ccc(C(=O)NC2CCCCC2)cc1)c1ccc(O)c(-c2ccc(Cl)c(Cl)c2)c1` showed an IC50 of 0.88 µM.
The figure for `COc1cc(Cc2cnc(N)nc2N)ccc1OCc1ccc(F)c(F)c1` is 0.91 µM.
As for `FC(F)(F)c1ccc2nc(-c3ccc(-c4cccc(CNCCc5ccncc5)c4)s3)[nH]c2c1`, the IC50 came to 0.12 µM.
On to `CC1(C)S(=O)(=O)CC(O)CS1(=O)=O`, for which the IC50 turned out to be 0.47 µM.
Then `Cc1ccc(C(O)CNc2ccnc(Nc3cccc(-c4csc(C)n4)c3)n2)cc1` (configuration not stated), with 0.83 µM; and `CN1CCN(CCCN(Cc2cccc(-c3cccc(CNCCc4ccccc4)c3)c2)C(=O)Nc2ccccc2)CC1`, with 0.58 µM; and `CCc1cn2c3c(cc(C(=O)N[C@@H](Cc4ccccc4)[C@H](O)CNCCOC)cc13)N(C)S(=O)(=O)CC2`, with 0.95 µM.
The compound `CC1CCC(NCc2c(O)ccc3ccccc23)CC1` (configuration not stated) yielded an IC50 of 0.77 µM.
The figure for `CN(C)CC1CCCN1Cc1ccccc1-c1cnn(C)c(=O)c1Oc1ccccc1F` (configuration not stated) is 1.31 µM; for `CN1CCCN(Cc2ccc(-c3ccc(NC(=O)c4cccc(C#N)c4)cc3)cc2)CC1` it is 0.88 µM; for `O=C(Nc1cccc(-c2ccc(-c3nc4ccc(C(F)(F)F)cc4[nH]3)cc2)c1)c1cnc[nH]1` it is 0.97 µM.
Consider `Cc1ccc(NC(=O)c2ccc(CN3CCCN(CCC(C)C)CC3)cc2)cc1F`, for which the IC50 was determined as 0.61 µM.
Then `COc1cc(C(=O)N2N=C(c3c(-c4ccccc4)c4cc(Br)ccc4[nH]c3=O)CC2c2cccc([N+](=O)[O-])c2)cc(OC)c1OC` (configuration not stated), with 0.94 µM; and `CCN(CC)CCCC(C)Nc1cc(C=Cc2ccccc2Cl)nc2cc(Cl)ccc12` (configuration not stated), with 0.8 µM; and `CCCNCc1ccc(-c2ccc(CN(Cc3cnc(C)cn3)C(=O)c3nn(-c4ccccc4)nc3C)cc2)nc1`, with 0.42 µM.
The figure for `Cc1cc(-c2ccc3c(c2)CCN(CCC2CCC(NC(=O)/C=C/c4cccc(F)c4)CC2)CC3)on1` (configuration not stated) is 0.75 µM; for `CCCN(CCC)CCCN(CCCN(CCC)CCC)c1cc(C)nc(Nc2ccc3cc(Br)ccc3c2)n1` it is 0.21 µM.
Then `Cc1cc(N[C@@H](CC(C)C)C(=O)Nc2ccccc2)nc(NCCc2ccc(F)cc2)n1`, with 1.09 µM.
`COc1ccc(NC(=O)[C@H](C)Nc2cc(C)nc(NCC3CCCCC3)n2)cc1` returned an IC50 of 1.28 µM.
Compound `COc1ccccc1CCN1CCC(CN(C)Cc2ccc(O)c(Cl)c2)CC1` returned an IC50 of 0.33 µM.
Then `O=c1ccc(-c2nc3cc(Cl)c(Cl)cc3n2Cc2ccc(Cl)cc2Cl)c[nH]1`, with 1.11 µM; and `O=C(/C=C/c1ccc(Cl)c(Cl)c1)NCCCCCN1CCC(NC(=O)NCCc2ccccc2)CC1`, with 0.72 µM; and `COc1cc(OC)c2c(c1Cl)O[C@]1(C2=O)C(=O)C(Cc2ccccc2)(Cc2ccccc2)C(=O)C[C@H]1C`, with 0.97 µM.
For the compound `Fc1ccc2[nH]cc(CCNCc3ccc(-c4cccc(-c5nc6ccccc6[nH]5)c4)cc3)c2c1`, the IC50 is 0.17 µM.
Compound `CC(C)(c1ccccc1)c1ccc(O)c(CN2CCOCC2)c1` yielded a 50% inhibitory concentration (IC50) of 0.98 µM.
The figure for `Cc1nc(-c2ccc(-c3ccc(NC(=O)Nc4ccc(I)c(OCCN(C)C)c4)cc3)c(C)c2)no1` is 0.37 µM; for `CC(C)(CNCc1ccc(C(F)(F)F)cc1)c1nc(-c2ccc(Cl)c(O)c2)c(-c2ccncc2)[nH]1` it is 0.73 µM.
Compound `O=c1cc(NCCCNCc2ccc(Cl)c(Cl)c2)[nH]c2ccc(C(F)(F)F)cc12` gave an IC50 of 0.52 µM.
The figure for `c1ccc(CN2CCC(NCc3ccccc3-c3ccc(CNCc4ccc5c(c4)OCO5)cc3)CC2)cc1` is 0.33 µM; for `CC(C)CCNCc1ccc(OCc2cccc(COc3ccc(CNCCC(C)C)cc3I)c2)c(I)c1` it is 0.45 µM; for `Fc1ccc2nc(-c3ccc(-c4ccc(CN5CCN(c6ccncc6)CC5)cc4)cc3)[nH]c2c1` it is 0.25 µM.
`COc1ccc(C2CNCc3c2cc(OC)c(OC)c3Cl)cc1` (configuration not stated) gave an IC50 of 0.73 µM.
In turn, `COc1ccc2nc3cc(Cl)ccc3c(NCc3ccccc3)c2c1` gave an IC50 of 0.87 µM.
Compound `COc1ccc(OC)c(-c2cccc(-c3cccc(NC(=O)c4ccc([N+](=O)[O-])o4)c3)n2)c1` displayed an IC50 of 0.37 µM.
Regarding `O=C(/C=C/c1ccccc1O)N1CCC(CCN2CCC(c3c[nH]c4ccccc34)CC2)CC1`, the IC50 came to 1.34 µM.
Then `Cc1onc(-c2c(F)cccc2Cl)c1C(=O)Nc1ccccc1I`, with 0.95 µM; and `O=C(Nc1ccc(-c2nc3ccccc3[nH]2)cc1)c1cccc(S(=O)(=O)N2CCOCC2)c1`, with 0.9 µM.
Then `CN(C)c1cccc(CN2CC=C(c3c[nH]c4ccc(Cl)cc34)CC2)c1`, with 0.66 µM; and `COc1ccc2nccc([C@@H](O)CN3CCC(NCc4cn5cc(F)ccc5n4)CC3)c2c1`, with 0.78 µM.
Then `CCCNC(=O)C1Cc2c([nH]c3cc(Br)ccc23)C2(CCN(CCc3ccccc3)CC2)N1` (configuration not stated), with 0.97 µM; and `O=C(Nc1ccc2c(c1)CCNCC2)c1ccc(-c2ccc(Cl)cc2)cc1`, with 0.81 µM.
As to `Cc1[nH]c(C)c(-c2ccc(OCCn3cnc(Cl)c3Cl)cc2)c(=O)c1Br`, the IC50 is 0.85 µM.
`COc1c(C=NNc2nc(Nc3ccccc3)nc(Nc3ccccc3)n2)ccc(Br)c1O` had a half-maximal inhibitory concentration (IC50) of 0.72 µM.
Then `CC(C)COc1ccc(Cl)cc1Cc1ccc(-c2nc3c(cnc4ccccc43)[nH]2)o1`, with 1.26 µM; and `COc1ccc(Cl)cc1N1CCN(CCCNC(=O)c2ccc(-c3nc4cc(Cl)c(C)cc4[nH]3)s2)CC1`, with 0.78 µM.
The figure for `O=S(=O)(NCCN1CCCC1)c1ccc(-c2ccc(CNCc3ccccc3)cc2)s1` is 0.85 µM; for `COc1cc(-c2ccc(-c3cnc(N)nc3OC)[nH]2)cc(OC)c1OC` it is 0.73 µM.
The figure for `Cc1ccc(C(C#N)c2ccc3c(C(F)(F)F)cc(C(F)(F)F)nc3n2)cc1` (configuration not stated) is 0.7 µM.
Turning to `COCCNCc1cccc(-c2ccc3c(Nc4ccc(Oc5cccnc5)cc4)ccnc3c2)c1`, the half-inhibitory concentration (IC50) was 0.18 µM.
Then `Cc1nc(N)nc(N)c1-c1cc(Cl)c(N)c(Cl)c1`, with 0.8 µM.
The compound `CC(=O)Nc1ccc(C(=O)Nc2cccc(-c3cccc(-c4nc5ccc(C(F)(F)F)cc5[nH]4)c3)c2)cn1` had an IC50 of 0.07 µM.
Then `Cc1cccc2[nH]c(-c3cccc(-c4ccc(NC(=O)Nc5ccc(Cl)c(Cl)c5)cc4)c3)nc12`, with 0.57 µM; and `Clc1cc(Nc2ncnc3sc(C#C[C@H]4CCCN4)cc23)ccc1OCc1cccnc1Cl`, with 0.57 µM.
On to `CC[C@H](N=C(Nc1ccc(-c2ccccc2)cc1)Nc1ccc(C#N)cc1O)c1ccccc1`, for which the half-maximal inhibitory concentration (IC50) amounted to 0.76 µM.
Then `CN(C)CCNC(=O)c1ccc(-c2ccc3c(Nc4ccccc4)c(C(N)=O)cnc3c2)cc1`, with 0.73 µM; and `CCCCc1ccc(Cc2cnc3nc(N)nc(N)c3c2C)cc1`, with 0.23 µM; and `COc1ccc(Nc2ncc3c(-c4cccc(NC(=O)Cc5cccnc5)c4)c[nH]c3n2)cc1OC`, with 0.72 µM.
The figure for `COc1ccc(N2CCN(CCCCNCc3ccc(NC(=O)c4cc(Cl)cc(Cl)c4)cc3)CC2)c(OC)c1` is 0.25 µM.
Then `O=C(Cc1cccc2ccccc12)N1CCc2cc3nccc(N4CCN5CCC[C@H]5C4)c3cc21`, with 0.78 µM; and `COc1ccc(-c2ccc(NC(=O)c3ccc(C#N)cc3)cc2)cc1CN1CCCC1`, with 0.87 µM.
For `Cc1ccc(CON2C(N)=NC(N)=NC23CCCCC3)c2ccccc12`, the IC50 is 0.07 µM.
Then `Cc1ccc2oc3cc(-c4nn[nH]n4)ccc3c(=O)c2c1`, with 0.09 µM.

Values taken from PubChem BioAssay AID2305 (GlaxoSmithKline (GSK), 2010).
